Where two headings read alike, the source gives them in different places.
Key:
[1] = Biodistribution, PC-3 xenograft mice; type: in vivo, NOD SCID mice; conditions: female, NOD SCID, intravenous, total radioactivity; for tissue uptake at 7.3 h: Mouse #2, 7.3 h p.i., 1.43 nmol; for tissue uptake at 7.3 h / tissue uptake at 4 h / tissue uptake at 25.1 h: single tracer, PC-3 xenograft; for tissue uptake at 4 h: Mouse #3, 4 h p.i., 1.49 nmol; for tissue uptake at 25.1 h: Mouse #1, 25.1 h p.i., 1.34 nmol
Excerpt: (§1) Tumor growth and body weight were monitored daily. […]
(§2) 3.6.1 Biodistribution studies
(§3) xenograft-bearing female NOD SCID mice. […]

PC-3 xenograft = assay: Biodistribution, PC-3 xenograft mice; type: in vivo, NOD SCID mice; conditions: single tracer, PC-3 xenograft
Excerpt: as §1, §2, §3

PC-3 xenografts = system: PC-3 xenografts; parameters: method as in Mansi et al. [37]; conditions: 24 h p.i.; female nude mice; i.v. 10 pmol; n = 4; ref Mansi et al. [37]; cited from earlier work
[2] = Biodistribution, CHO-K1-GRPR + CHO-K1-PSMA dual xenograft mice; conditions: female, NOD SCID, mouse, intravenous, total radioactivity; for tissue uptake at 24.2 h / tissue uptake at 25.2 h: single tracer; for tissue uptake at 24.2 h / tissue uptake at 25.8 h / tissue uptake at 25.2 h / tissue uptake at 17.6 h: dual xenograft; for tissue uptake at 24.2 h: 24.2 h p.i.; for tissue uptake at 25.8 h: 1 nmol, Mouse #8, 25.8 h p.i., 1.00 nmol; for tissue uptake at 25.8 h / tissue uptake at 17.6 h: dual tracer; for tissue uptake at 25.2 h: 1.08 nmol, Mouse #6, 25.2 h p.i.; for tissue uptake at 17.6 h: 2.69 nmol, Mouse #9, 17.6 h p.i.; for tissue uptake: CHO-K1-GRPR xenograft tumor, Uptake in CHO-K1-GRPR xenografts, range
Protocol: Six-to-eight-week-old female immunodeficient mice (NOD SCID) were obtained from the Core facility laboratory animal breeding and husbandry of the Medical University of Vienna, Himberg, Austria. Animals were kept in individually ventilated cages with 12 h light–dark cycle. All experiments were approved by the Federal Ministry of Education, Science and Research, Republic of Austria (2020-0.253.820 and BMBWF-66.009/0122-V/3b/2019) and performed according to the guidelines from the Federation of the European Laboratory Animal Science Associations (FELASA). After an acclimatization period of two weeks, animals were injected with 3 × 10^6 CHO-K1-GRPR cells in the right flank and 3 × 10^6 CHO-K1-PSMA cells in the left flank (3 × 10^6 in 100 µL serum-free medium each). It should be noted that approximately the same passage (±1 passage number) was used for inoculation for both cell lines to ensure similar cell viability, target incidence, and density in vivo. Tracer uptake (and thus target expression) was confirmed three days prior to inoculation in cell uptake experiments. […] Tumor growth and body weight were monitored daily. Animals were subjected to imaging after 1.5–2 weeks of tumor growth (final tumor volume of 100–800 mm^3). Endpoints were defined as rapid weight loss up to 20% body weight, tumor volume ≥ 1000 mm^3, tumor volume < 1000 mm^3 with signs of necrosis (ulcerated surface), as well as clearly detectable apathy and pain upon touch.
Animals used in imaging studies were sacrificed at different time points post injectionem (p.i.) after the last imaging time point by cervical dislocation under isofluorane anesthesia. Selected organs were removed and weighed, and organ activities were measured in a γ-counter. For animals in which a dual-tracer cocktail was administered, the organs were measured several times over a period of 2–3 weeks to use these datasets in specific calculation methods (Section 3.6 in the SI) to obtain the correct activity for each individual radionuclide at the start of the measurement series.
[99mTc]Tc-PSMA-I&S or both (dual tracer cocktail) were injected into the tail vein of tumor
xenograft-bearing female NOD SCID mice. They were sacrificed by cervical dislocation under
isofluoran anesthesia at different time points post injectionem (p.i.) after the last imaging time
point. Selected organs were removed, weighed and organ activities measured in a γ-counter.

[3] = PC-3 tumor, read-out: Biodistribution: PC-3 Tumor
[4] = bone, read-out: Biodistribution: Bone
[5] = colon (empty), read-out: Biodistribution: Colon (empty)
[6] = intestine (empty), read-out: Biodistribution: Intestine (empty)
[7] = liver, read-out: Biodistribution: Liver
[8] = muscle, read-out: Biodistribution: Muscle
[9] = spleen, read-out: Biodistribution: Spleen
[10] = stomach (empty), read-out: Biodistribution: Stomach (empty)
[11] = Mouse #1, 25.1 h p.i., 1.34 nmol
[12] = CHO-K1-GRPR tumor, Biodistribution: CHO-K1-GRPR Tumor
[13] = CHO-K1-PSMA tumor, Biodistribution: CHO-K1-PSMA Tumor
[14] = adrenal, Biodistribution: Adrenal
[15] = kidney, Biodistribution: Kidney
[16] = muscle, Biodistribution: Muscle
[17] = pancreas, Biodistribution: Pancreas
[18] = spleen, Biodistribution: Spleen
[19] = stomach (empty), Biodistribution: Stomach (empty)

Compound: CC(C)C[C@H](NC(=O)C[C@H](O)[C@H](CC(C)C)NC(=O)[C@H](Cc1c[nH]cn1)NC(=O)CNC(=O)[C@@H](NC(=O)[C@H](C)NC(=O)[C@H](Cc1c[nH]c2ccccc12)NC(=O)[C@H](CCC(N)=O)NC(=O)[C@@H](Cc1ccccc1)NC(=O)CN1CCC(NC(=O)CN2CCN(CC(=O)O)CCN(CC(=O)O)CCN(CC(=O)O)CC2)CC1)C(C)C)C(N)=O [[^111In]In-RM2, metal not drawn]
- tissue uptake at 7.3 h [1, 3]: 1.36 %ID/g
- tissue uptake at 4 h [1, 3]: 2.75 %ID/g
- tissue uptake at 4 h ([1]; adrenal, read-out: Biodistribution: Adrenal): 0.13 %ID/g
- tissue uptake at 25.1 h [1, 4]: 0.07 %ID/g
- tissue uptake at 4 h [1, 4]: 0.04 %ID/g
- tissue uptake at 25.1 h [1, 5]: 0.04 %ID/g
- tissue uptake at 7.3 h [1, 5]: 0.04 %ID/g
- tissue uptake at 7.3 h ([1]; heart, read-out: Biodistribution: Heart): 0.02 %ID/g
- tissue uptake at 25.1 h [1, 6]: 0.08 %ID/g
- tissue uptake at 4 h [1, 6]: 0.08 %ID/g
- tissue uptake at 7.3 h ([1]; kidney, read-out: Biodistribution: Kidney): 1.29 %ID/g
- tissue uptake at 25.1 h [1, 7]: 0.17 %ID/g
- tissue uptake at 7.3 h [1, 7]: 0.12 %ID/g
- tissue uptake at 4 h [1, 7]: 0.22 %ID/g
- tissue uptake ([1]; mouse, PC-3 xenograft tumor, 4-25.1 h p.i., range over mice, read-out: Uptake in PC-3 xenografts): 1.36 to 2.75 %ID/g
- tissue uptake at 25.1 h [1, 8]: 0.01 %ID/g
- tissue uptake at 7.3 h [1, 8]: 0.01 %ID/g
- tissue uptake at 4 h [1, 8]: 0.01 %ID/g
- tissue uptake at 25.1 h ([1]; pancreas, read-out: Biodistribution: Pancreas): 0.06 %ID/g
- tissue uptake at 25.1 h [1, 9]: 0.16 %ID/g
- tissue uptake at 7.3 h [1, 9]: 0.13 %ID/g
- tissue uptake at 4 h [1, 9]: 0.1 %ID/g
- tissue uptake at 7.3 h [1, 10]: 0.02 %ID/g
- tissue uptake at 4 h [1, 10]: 0.09 %ID/g
- Biodistribution: Kidney (PC-3 xenograft; [11]): 2.17 % ID/g
- Biodistribution: PC-3 Tumor (PC-3 xenograft; [11]): 2.20 % ID/g
- Biodistribution: Heart (PC-3 xenograft; Mouse #3, 4 h p.i., 1.49 nmol): 0.02 % ID/g
- Biodistribution: Kidney (PC-3 xenograft; Mouse #3, 4 h p.i., 1.49 nmol): 2.20 % ID/g
- Uptake in PC-3 xenografts (PC-3 xenografts): 6.84 ± 1.02 % ID/g
- tissue uptake at 24.2 h ([2]; CHO-K1-GRPR tumor, 0.37 nmol, Biodistribution: CHO-K1-GRPR Tumor, Mouse #5, 0.37 nmol): 0.51 %ID/g
- tissue uptake at 24.2 h ([2]; CHO-K1-GRPR tumor, 0.58 nmol, Biodistribution: CHO-K1-GRPR Tumor, Mouse #4, 0.58 nmol): 0.28 %ID/g
- tissue uptake at 25.8 h [2, 12]: 0.38 %ID/g
- tissue uptake at 25.2 h [2, 12]: 0.33 %ID/g
- tissue uptake at 24.2 h ([2]; CHO-K1-GRPR tumor, 1.41 nmol, Biodistribution: CHO-K1-GRPR Tumor, Mouse #7, 1.41 nmol): 0.06 %ID/g
- tissue uptake at 17.6 h [2, 12]: 0.26 %ID/g
- tissue uptake ([2]; dual-tracer mice #8 and #9): 0.26 to 0.38 %ID/g
- tissue uptake ([2]; single-tracer mice #4–#7): 0.06 to 0.51 %ID/g
- tissue uptake at 24.2 h ([2]; CHO-K1-PSMA tumor, 0.37 nmol, Biodistribution: CHO-K1-PSMA Tumor, Mouse #5, 0.37 nmol): 0.08 %ID/g
- tissue uptake at 25.8 h [2, 13]: 0.08 %ID/g
- tissue uptake at 25.2 h [2, 13]: 0.09 %ID/g
- tissue uptake at 24.2 h ([2]; CHO-K1-PSMA tumor, 1.41 nmol, Biodistribution: CHO-K1-PSMA Tumor, Mouse #7, 1.41 nmol): 0.08 %ID/g
- tissue uptake at 17.6 h [2, 13]: 0.09 %ID/g
- tissue uptake at 24.2 h ([2]; adrenal, 0.37 nmol, Biodistribution: Adrenal, Mouse #5, 0.37 nmol): 0.33 %ID/g
- tissue uptake at 24.2 h ([2]; adrenal, 0.58 nmol, Biodistribution: Adrenal, Mouse #4, 0.58 nmol): 0.12 %ID/g
- tissue uptake at 25.2 h [2, 14]: 0.16 %ID/g
- tissue uptake at 24.2 h ([2]; adrenal, 1.41 nmol, Biodistribution: Adrenal, Mouse #7, 1.41 nmol): 0.08 %ID/g
- tissue uptake at 17.6 h [2, 14]: 0.12 %ID/g
- tissue uptake at 25.8 h ([2]; blood, Biodistribution: Blood): 0.02 %ID/g
- tissue uptake at 25.2 h ([2]; blood, Biodistribution: Blood): 0.01 %ID/g
- tissue uptake at 24.2 h ([2]; blood, 1.41 nmol, Biodistribution: Blood, Mouse #7, 1.41 nmol): 0.01 %ID/g
- tissue uptake at 17.6 h ([2]; blood, Biodistribution: Blood): 0.02 %ID/g
- tissue uptake at 24.2 h ([2]; bone, 0.37 nmol, Biodistribution: Bone, Mouse #5, 0.37 nmol): 0.04 %ID/g
- tissue uptake at 24.2 h ([2]; bone, 0.58 nmol, Biodistribution: Bone, Mouse #4, 0.58 nmol): 0.04 %ID/g
- tissue uptake at 25.8 h ([2]; bone, Biodistribution: Bone): 0.06 %ID/g
- tissue uptake at 25.2 h ([2]; bone, Biodistribution: Bone): 0.06 %ID/g
- tissue uptake at 24.2 h ([2]; bone, 1.41 nmol, Biodistribution: Bone, Mouse #7, 1.41 nmol): 0.04 %ID/g
- tissue uptake at 24.2 h ([2]; colon (empty), 0.37 nmol, Biodistribution: Colon (empty), Mouse #5, 0.37 nmol): 0.08 %ID/g
- tissue uptake at 24.2 h ([2]; colon (empty), 0.58 nmol, Biodistribution: Colon (empty), Mouse #4, 0.58 nmol): 0.04 %ID/g
- tissue uptake at 25.8 h ([2]; colon (empty), Biodistribution: Colon (empty)): 0.04 %ID/g
- tissue uptake at 24.2 h ([2]; heart, 0.58 nmol, Biodistribution: Heart, Mouse #4, 0.58 nmol): 0.02 %ID/g
- tissue uptake at 24.2 h ([2]; heart, 1.41 nmol, Biodistribution: Heart, Mouse #7, 1.41 nmol): 0.02 %ID/g
- tissue uptake at 24.2 h ([2]; intestine (empty), 0.37 nmol, Biodistribution: Intestine (empty), Mouse #5, 0.37 nmol): 0.06 %ID/g
- tissue uptake at 24.2 h ([2]; intestine (empty), 1.41 nmol, Biodistribution: Intestine (empty), Mouse #7, 1.41 nmol): 0.04 %ID/g
- tissue uptake at 17.6 h ([2]; intestine (empty), Biodistribution: Intestine (empty)): 0.04 %ID/g
- tissue uptake at 24.2 h ([2]; kidney, 0.37 nmol, Biodistribution: Kidney, Mouse #5, 0.37 nmol): 1.42 %ID/g
- tissue uptake at 24.2 h ([2]; kidney, 0.58 nmol, Biodistribution: Kidney, Mouse #4, 0.58 nmol): 1.14 %ID/g
- tissue uptake at 25.8 h [2, 15]: 1.07 %ID/g
- tissue uptake at 25.2 h [2, 15]: 1.69 %ID/g
- tissue uptake at 24.2 h ([2]; kidney, 1.41 nmol, Biodistribution: Kidney, Mouse #7, 1.41 nmol): 1.34 %ID/g
- tissue uptake at 17.6 h [2, 15]: 1.09 %ID/g
- tissue uptake at 24.2 h ([2]; liver, 0.37 nmol, Biodistribution: Liver, Mouse #5, 0.37 nmol): 0.13 %ID/g
- tissue uptake at 24.2 h ([2]; liver, 0.58 nmol, Biodistribution: Liver, Mouse #4, 0.58 nmol): 0.1 %ID/g
- tissue uptake at 25.8 h ([2]; liver, Biodistribution: Liver): 0.28 %ID/g
- tissue uptake at 25.2 h ([2]; liver, Biodistribution: Liver): 0.2 %ID/g
- tissue uptake at 24.2 h ([2]; liver, 1.41 nmol, Biodistribution: Liver, Mouse #7, 1.41 nmol): 0.17 %ID/g
- tissue uptake at 17.6 h ([2]; liver, Biodistribution: Liver): 0.13 %ID/g
- tissue uptake at 25.8 h ([2]; lung, Biodistribution: Lung): 0.04 %ID/g
- tissue uptake at 24.2 h ([2]; lung, 1.41 nmol, Biodistribution: Lung, Mouse #7, 1.41 nmol): 0.04 %ID/g
- tissue uptake at 24.2 h ([2]; muscle, 0.37 nmol, Biodistribution: Muscle, Mouse #5, 0.37 nmol): 0.01 %ID/g
- tissue uptake at 24.2 h ([2]; muscle, 0.58 nmol, Biodistribution: Muscle, Mouse #4, 0.58 nmol): 0.01 %ID/g
- tissue uptake at 25.8 h [2, 16]: 0.01 %ID/g
- tissue uptake at 25.2 h [2, 16]: 0.02 %ID/g
- tissue uptake at 24.2 h ([2]; muscle, 1.41 nmol, Biodistribution: Muscle, Mouse #7, 1.41 nmol): 0.01 %ID/g
- tissue uptake at 17.6 h [2, 16]: 0.01 %ID/g
- tissue uptake at 24.2 h ([2]; pancreas, 0.37 nmol, Biodistribution: Pancreas, Mouse #5, 0.37 nmol): 0.1 %ID/g
- tissue uptake at 24.2 h ([2]; pancreas, 0.58 nmol, Biodistribution: Pancreas, Mouse #4, 0.58 nmol): 0.07 %ID/g
- tissue uptake at 25.8 h [2, 17]: 0.07 %ID/g
- tissue uptake at 25.2 h [2, 17]: 0.06 %ID/g
- tissue uptake at 24.2 h ([2]; pancreas, 1.41 nmol, Biodistribution: Pancreas, Mouse #7, 1.41 nmol): 0.04 %ID/g
- tissue uptake at 17.6 h [2, 17]: 0.04 %ID/g
- tissue uptake at 24.2 h ([2]; spleen, 0.37 nmol, Biodistribution: Spleen, Mouse #5, 0.37 nmol): 0.08 %ID/g
- tissue uptake at 24.2 h ([2]; spleen, 0.58 nmol, Biodistribution: Spleen, Mouse #4, 0.58 nmol): 0.07 %ID/g
- tissue uptake at 25.8 h [2, 18]: 0.25 %ID/g
- tissue uptake at 25.2 h [2, 18]: 0.13 %ID/g
- tissue uptake at 24.2 h ([2]; spleen, 1.41 nmol, Biodistribution: Spleen, Mouse #7, 1.41 nmol): 0.08 %ID/g
- tissue uptake at 17.6 h [2, 18]: 0.1 %ID/g
- tissue uptake at 24.2 h ([2]; stomach (empty), 0.37 nmol, Biodistribution: Stomach (empty), Mouse #5, 0.37 nmol): 0.04 %ID/g
- tissue uptake at 25.8 h [2, 19]: 0.04 %ID/g
- tissue uptake at 25.2 h [2, 19]: 0.04 %ID/g

— paper PMC12298007 (Pharmaceuticals, 2025)
